According to patent publication US20250002914A1, “NUCLEIC ACID AGENTS FOR TREATMENT OF NON-SMALL-CELL LUNG CANCER” (UNIVERSITY COLLEGE DUBLIN, priority 2021, published 2025):

How the values were obtained:
Format in all cases: cell-based
A549 cells = assay: Cisplatin dose response, A549
Method: (§1) Cisplatin screen. Optimal cisplatin working concentrations were established via dose response and cell doubling time. In the dose response, 3,000 A549 and H460 cells were plated in 96-well plates and treated with a range of cisplatin concentrations. After 72 h, CellTiter-Glo 2.0 (Promega, cat. no. G9242) was added to the media (1:1), and luminescence was recorded. For the cell doubling time, 1M cells were plated in 10 cm plates. Different cisplatin concentrations were added at indicated concentrations, and living cells counted every 2-3 days up to 14 days. Cisplatin survival screen: 48M and 96M cells were plated at TO and treated with 6.5 μM and 25 μM of Cisplatin for A549 cells and 2 μM and 10 μM for H460 cells, corresponding to IC30 and IC80, respectively. Cell pellets were collected after 14 and 21 days. The death screen was carried out as follows: 144M cells were seeded and treated with cisplatin at 2 μM and 1 μM (IC20) for A549 and H460, respectively. Every 24 h, for five days, floating (dead) cells were collected and pooled together for gDNA extraction.

H460 cells = assay: Cisplatin dose response, H460
Method: as §1

Tier II genes = assay: Tier II genes' expression following cisplatin treatment

N.N.[Cl][Pt][Cl] [Cisplatin, cisplatin]
IC20 (A549 cells): 2 µM
IC30 (A549 cells): 6.5 µM
IC80 (A549 cells): 25 µM
IC20 (H460 cells): 1 µM
IC30 (H460 cells): 2 µM
IC80 (H460 cells): 10 µM
Tier II genes' expression (Tier II genes): upregulation
